The values that follow come from paper PMC10580383, “Development of Melanocortin 4 Receptor Agonists by Exploiting Animal-Derived Macrocyclic, Disulfide-Rich Peptide Scaffolds” (ACS Pharmacology & Translational Science, 2023).

Read-outs that look alike come from different tables or passages of the source. Where a SMILES comes first, the peptide text is derived from it. Bridges are numbered along the chain shown (N, C = ends). Where no end group is shown, it is not given here. [ ]: non-standard residue; d: D form. pGlu = O=C1CC[C@@H](C(=O)O)N1

The target in assay [1] is T1, mouse melanocortin 4 receptor (MC4R) (Mus musculus, UniProt P56450).
T1 construct: expressed in transfected cells; host or cells: HEK293 / HEK293T, transient transfection
T1 sequence (P56450 whole entry): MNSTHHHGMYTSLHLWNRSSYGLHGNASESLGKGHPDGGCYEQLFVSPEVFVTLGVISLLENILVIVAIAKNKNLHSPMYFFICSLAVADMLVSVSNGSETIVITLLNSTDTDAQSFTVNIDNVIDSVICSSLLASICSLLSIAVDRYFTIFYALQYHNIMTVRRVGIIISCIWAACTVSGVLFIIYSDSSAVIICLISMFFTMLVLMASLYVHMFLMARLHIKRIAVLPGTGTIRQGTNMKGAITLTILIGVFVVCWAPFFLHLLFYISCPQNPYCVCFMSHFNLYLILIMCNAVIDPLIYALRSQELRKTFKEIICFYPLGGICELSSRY
In words: cAMP second messenger quantification assay (Cisbio HTRF cAMP Gs kit). The class given is cell-based. As to the method:
Figure 3 Functional cAMP assay of synthesized peptide analogues targeting MC4R. The accumulation of adenylyl cyclase-catalyzed cAMP of (A) tachylplesin-1-like peptides (Ta1LPs, green), (B) protegrin-4-like peptides ([…], pink), (C) arenicin-3-like peptides (Ar3LPs, orange), and (D) gomesin-like peptides (GoLPs, blue) was measured in HEK293 cells transiently expressing mouse melanocortin 4 receptor (MC4R). […] Data are from three independent experiments and are shown as mean ± SEM.
Assays were performed on cells transiently expressing mouse MC4R-EGFP. BamHI and SacI restriction sites were used to clone mouse MC4R N-terminally into a pEGFP-N1 vector. Peptide ligands were assayed for […] in a 384-well format and triplicate according to the Cisbio protocol. Briefly, 5 μL containing 10,000 cells per well was incubated with 5 μL of peptide solutions prepared 2× in 1× stimulation buffer. Following an incubation of peptide ligands at 37 °C for 30 min, d2-labeled cAMP and cryptate-labeled antibody (5 μL of each) were added to the mixture and further incubated for at least 1 h at room temperature. Subsequently, cAMP levels were quantified on a Flexstation 3 (Molecular Devices, San Jose, USA) using homogeneous time-resolved fluorescence resonance energy transfer and the ratio 665/620 nm. Samples were measured in technical triplicates.
Data analysis was performed with GraphPad Prism (GraphPad Software, San Diego). The potency (EC50) and maximum efficacy (Emax) values of peptide ligands were derived from functional data fitted to three- or four-parameter nonlinear regression curves constrained to a bottom of zero.
(In general: Time-resolved FRET reads energy transfer from a long-lived donor to a nearby acceptor.)

The target of assay [2] is mouse melanocortin 4 receptor fused to EGFP (mouse) (UniProt P56450).
Chain of mouse melanocortin 4 receptor fused to EGFP (mouse) (P56450 whole entry, the tested form may be a part): as the sequence (P56450 whole entry) above
The mark [3] stands for this setting: HEK293, read-out: efficacy cAMP Emax ± SD.

With `CC(C)[C@@H]1NC(=O)[C@H](CCCNC(=N)N)NC(=O)[C@H](Cc2ccccc2)NC(=O)[C@@H](NC(=O)[C@H](Cc2c[nH]c3ccccc23)NC(=O)[C@@H](N)CCCCN)CSSC[C@@H](C(=O)N[C@@H](CCCNC(=N)N)C(N)=O)NC(=O)[C@H](CCCNC(=N)N)NC(=O)[C@H](CCCNC(=N)N)NC(=O)[C@H](Cc2ccc(O)cc2)NC(=O)[C@@H]2CSSC[C@H](NC1=O)C(=O)N[C@@H](Cc1c[nH]cn1)C(=O)N[C@H](Cc1ccccc1)C(=O)N[C@@H](CCCNC(=N)N)C(=O)N[C@@H](Cc1c[nH]c3ccccc13)C(=O)N2` [Ta1LP3] (H-KWCFRVCH[dF]RWCYRRCR-NH2; disulfide 3-16, 7-12), the EC50 in assay [1] is 16.7 nM. The Emax in assay [1] (setting [3]) was found to be 98 ± 4%.

For `CC(C)C[C@@H]1NC(=O)[C@H](CCCNC(=N)N)NC(=O)[C@H](CCCNC(=N)N)NC(=O)[C@@H](NC(=O)[C@@H]2CCC(=O)N2)CSSC[C@@H](C(=O)N[C@@H](CCCNC(=N)N)C(=O)NCC(=O)N[C@@H](CCCNC(=N)N)C(N)=O)NC(=O)[C@H](Cc2ccc(O)cc2)NC(=O)[C@H]([C@@H](C)O)NC(=O)[C@H](C(C)C)NC(=O)[C@@H]2CSSC[C@H](NC1=O)C(=O)N[C@@H](Cc1c[nH]cn1)C(=O)N[C@H](Cc1ccccc1)C(=O)N[C@@H](CCCNC(=N)N)C(=O)N[C@@H](Cc1c[nH]c3ccccc13)C(=O)N2` [GoLP3] ([pGlu]CRRLCH[dF]RWCVTYCRGR-NH2; disulfide 2-15, 6-11), the EC50 in assay [1] worked out at 39.8 nM. Also, the Emax in assay [1] (setting [3]) came to 104 ± 5%.

The molecule `CC(C)C[C@H](NC(=O)[C@H](CCCNC(=N)N)NC(=O)CNC(=O)CNC(=O)[C@@H](N)CCCNC(=N)N)C(=O)N[C@H]1CSSC[C@@H](C(=O)N[C@H](C(=O)NCC(=O)N[C@@H](CCCNC(=N)N)C(N)=O)C(C)C)NC(=O)[C@H](Cc2ccccc2)NC(=O)[C@@H]2CSSC[C@H](NC(=O)[C@H](Cc3ccc(O)cc3)NC1=O)C(=O)N[C@@H](Cc1c[nH]cn1)C(=O)N[C@H](Cc1ccccc1)C(=O)N[C@@H](Cc1c[nH]cn1)C(=O)N[C@@H](Cc1c[nH]c3ccccc13)C(=O)N2` [Pr4LP2] (H-RGGRLCYCH[dF]HWCFCVGR-NH2; disulfide 6-15, 8-13) yielded an EC50 in assay [1] of 158 nM. For the same molecule, the maximal effect (Emax) in assay [1] (setting [3]) is 97 ± 4%.

On to `CC(C)[C@@H]1NC(=O)[C@H](CCCNC(=N)N)NC(=O)[C@H](Cc2ccccc2)NC(=O)[C@@H](NC(=O)[C@H](Cc2c[nH]c3ccccc23)NC(=O)[C@@H](N)CCCCN)CSSC[C@@H](C(=O)N[C@@H](CCCNC(=N)N)C(N)=O)NC(=O)[C@H](CCCNC(=N)N)NC(=O)[C@H](CCCNC(=N)N)NC(=O)[C@H](Cc2ccc(O)cc2)NC(=O)[C@@H]2CSSC[C@H](NC1=O)C(=O)N1CCC[C@H]1C(=O)N[C@@H](Cc1c[nH]cn1)C(=O)N[C@H](Cc1ccccc1)C(=O)N[C@@H](Cc1c[nH]cn1)C(=O)N[C@@H](Cc1c[nH]c3ccccc13)C(=O)N2` [Ta1LP1] (H-KWCFRVCPH[dF]HWCYRRCR-NH2; disulfide 3-17, 7-13), for which the EC50 in assay [1] was found to be 20 nM. The Emax in assay [1] (setting [3]) was 97 ± 4%.

Take `CC(C)[C@@H]1NC(=O)[C@H](CCCNC(=N)N)NC(=O)[C@H](Cc2ccccc2)NC(=O)[C@@H](NC(=O)[C@H](Cc2c[nH]c3ccccc23)NC(=O)[C@@H](N)CCCCN)CSSC[C@@H](C(=O)N[C@@H](CCCNC(=N)N)C(N)=O)NC(=O)[C@H](CCCNC(=N)N)NC(=O)[C@H](CCCNC(=N)N)NC(=O)[C@H](Cc2ccc(O)cc2)NC(=O)[C@@H]2CSSC[C@H](NC1=O)C(=O)N[C@@H](Cc1c[nH]cn1)C(=O)N[C@H](Cc1ccccc1)C(=O)N[C@@H](Cc1c[nH]cn1)C(=O)N[C@@H](Cc1c[nH]c3ccccc13)C(=O)N2` [Ta1LP2] (H-KWCFRVCH[dF]HWCYRRCR-NH2; disulfide 3-16, 7-12): the EC50 in assay [1] is 50.1 nM. In assay [1] (setting [3]), the Emax was 97 ± 6%.

As for `CC(C)C[C@H](NC(=O)[C@H](CCCNC(=N)N)NC(=O)CNC(=O)CNC(=O)[C@@H](N)CCCNC(=N)N)C(=O)N[C@H]1CSSC[C@@H](C(=O)N[C@H](C(=O)NCC(=O)N[C@@H](CCCNC(=N)N)C(N)=O)C(C)C)NC(=O)[C@H](Cc2ccccc2)NC(=O)[C@@H]2CSSC[C@H](NC(=O)[C@H](Cc3ccc(O)cc3)NC1=O)C(=O)N[C@@H](Cc1c[nH]cn1)C(=O)N[C@H](Cc1ccccc1)C(=O)N[C@@H](CCCNC(=N)N)C(=O)N[C@@H](Cc1c[nH]c3ccccc13)C(=O)N2` [Pr4LP3] (H-RGGRLCYCH[dF]RWCFCVGR-NH2; disulfide 6-15, 8-13), the EC50 in assay [1] turned out to be 200 nM. For the same molecule, in assay [1] (setting [3]), the Emax turned out to be 99 ± 6%.

Take `CC(C)[C@@H]1NC(=O)[C@H](CCCNC(=N)N)NC(=O)[C@H](Cc2c[nH]c3ccccc23)NC(=O)[C@H](Cc2c[nH]cn2)NC(=O)[C@@H](Cc2ccccc2)NC(=O)[C@H](Cc2c[nH]cn2)NC(=O)[C@@H]2CCCN2C(=O)[C@H](C(C)C)NC(=O)[C@@H]2CSSC[C@H](NC1=O)C(=O)N[C@@H](Cc1ccc(O)cc1)C(=O)N[C@@H](CCCNC(=N)N)C(=O)N[C@@H](CCCNC(=N)N)C(=O)N[C@H](C(=O)N[C@@H](CC(N)=O)C(N)=O)CSSC[C@H](NC(=O)[C@H](Cc1ccccc1)NC(=O)CN)C(=O)N[C@@H](Cc1c[nH]c3ccccc13)C(=O)N[C@@H](Cc1ccc(O)cc1)C(=O)N[C@@H](C(C)C)C(=O)N2` [Ar3LP3] (H-GFCWYVCVPH[dF]HWRVCYRRCN-NH2; disulfide 3-20, 7-16): the EC50 in assay [1] worked out at 1000 nM. Besides, in assay [1] (HEK293; read-out: efficacy cAMP Emax ± SD), the Emax was 117 ± 18%.

In assay [2], NDP-α-MSH (peptide) returned a cAMP accumulation (Cisbio HTRF) in HEK293 cells transiently expressing mouse MC4R-EGFP: EC50 of 0.04 nM and a cAMP accumulation (Cisbio HTRF) in HEK293 cells transiently expressing mouse MC4R-EGFP: Emax (normalised to NDP-α-MSH) of 100%.

B1: arenicin-3-like peptide 3 (peptide)
peptide: GFCWYVCVPH[dF]HWRVCYRRCN-NH2
modifications: disulfide 7-16, 3-20; N-terminus assumed
SMILES: CC(C)[C@@H]1NC(=O)[C@H](CCCNC(=N)N)NC(=O)[C@H](Cc2c[nH]c3ccccc23)NC(=O)[C@H](Cc2c[nH]cn2)NC(=O)[C@@H](Cc2ccccc2)NC(=O)[C@H](Cc2c[nH]cn2)NC(=O)[C@@H]2CCCN2C(=O)[C@H](C(C)C)NC(=O)[C@@H]2CSSC[C@H](NC1=O)C(=O)N[C@@H](Cc1ccc(O)cc1)C(=O)N[C@@H](CCCNC(=N)N)C(=O)N[C@@H](CCCNC(=N)N)C(=O)N[C@H](C(=O)N[C@@H](CC(N)=O)C(N)=O)CSSC[C@H](NC(=O)[C@H](Cc1ccccc1)NC(=O)CN)C(=O)N[C@@H](Cc1c[nH]c3ccccc13)C(=O)N[C@@H](Cc1ccc(O)cc1)C(=O)N[C@@H](C(C)C)C(=O)N2
For the molecule B1, in assay [2], the cAMP accumulation (Cisbio HTRF) in HEK293 cells transiently expressing mouse MC4R-EGFP: EC50 is 1000 nM and the cAMP accumulation (Cisbio HTRF) in HEK293 cells transiently expressing mouse MC4R-EGFP: Emax (normalised to NDP-α-MSH) stood at 117%.

B2: tachyplesin-1-like peptide 1 (peptide)
peptide: KWCFRVCPH[dF]HWCYRRCR-NH2
modifications: disulfide 7-13, 3-17; N-terminus assumed
SMILES: CC(C)[C@@H]1NC(=O)[C@H](CCCNC(=N)N)NC(=O)[C@H](Cc2ccccc2)NC(=O)[C@@H](NC(=O)[C@H](Cc2c[nH]c3ccccc23)NC(=O)[C@@H](N)CCCCN)CSSC[C@@H](C(=O)N[C@@H](CCCNC(=N)N)C(N)=O)NC(=O)[C@H](CCCNC(=N)N)NC(=O)[C@H](CCCNC(=N)N)NC(=O)[C@H](Cc2ccc(O)cc2)NC(=O)[C@@H]2CSSC[C@H](NC1=O)C(=O)N1CCC[C@H]1C(=O)N[C@@H](Cc1c[nH]cn1)C(=O)N[C@H](Cc1ccccc1)C(=O)N[C@@H](Cc1c[nH]cn1)C(=O)N[C@@H](Cc1c[nH]c3ccccc13)C(=O)N2
With B2, in assay [2], the cAMP accumulation (Cisbio HTRF) in HEK293 cells transiently expressing mouse MC4R-EGFP: EC50 is 20 nM and the cAMP accumulation (Cisbio HTRF) in HEK293 cells transiently expressing mouse MC4R-EGFP: Emax (normalised to NDP-α-MSH) worked out at 97%.

As a reminder, the EC50 is the concentration that produces a half-maximal response. A high value points to weaker potency. In general, Emax refers to the greatest response seen or fitted, relative to the assay's reference.
